Reference: patent US20250382631A1, “PROTAC-CID SYSTEMS FOR USE IN MULTIPLEX GENE REGULATION” (William Marsh Rice University, priority 2022, published 2025)
Read-outs that look alike come from different tables or passages of the source.

System: pUAS-1-driven EYFP expression in HEK293T cells transfected with GAL4- and VPR-fused PROTAC target protein / E3 ubiquitin ligase
Test: PROTAC-CID inducible EYFP gene activation, flow cytometry
Format: cell-based, human
Details: for Bottom (best-fit value) / Span (best-fit value) / Top (best-fit value): Table 4 nonlinear regression of EYFP activation; for Bottom (best-fit value) / Span (best-fit value) / Top (best-fit value) / Hillslope (best-fit value) / logEC50 (best-fit value) / EC50: FIG. 13A
Method: Fluorescence assay using flow cytometry analysis. Cells were treated with 0.05% Trpsin EDTA (Thermo Fisher Scientific no. 25300054) or TrypLE (Thermo Fisher Scientific no. 12605028) after transfection and centrifuged at 3000 g for 5 min. Supernatant was removed and the cell pellet was resuspended with 200 μL phosphate buffered saline (PBS) without calcium and magnesium (Thermo Fisher Scientific no. 10010023). Cells were transferred into 12×75 mm flow tubes (Global Scientific no. 110410). Cells were analyzed by MA900 flow cytometry (SONY). 405 nm laser (FL6 filter) was used for testing the BFP channel. 488 nm (FL1 filter) was used for testing the EYFP and GFP channel. Automated alignment using Automatic Setup Beads kit (SONY no. LE-B3001) is performed before running samples. In FIGS. 3A, 3B, and 17, experiments were performed under 2% FSC, 17% BSC, 24% FL1. In FIG. 18, experiments were performed under 2% FSC, 17% BSC, 27% FL1. All the other experiments were performed under 2% FSC, 17% BSC, 24% FL1 and 27% FL6. Flow cytometry data was processed and analyzed by FlowJo 10. Events were first gated with forward scatter-Area (FSC-A) and side scatter-Area (SSC-A) to select viable cells and remove the debris and dead cells. Cells were further gated with FSC-A and FSC-Height (FSC-H) for selecting single cells. The mean intensity of the reporter fluorescent protein (BFP and EYFP) in viable and single cell populations were calculated by FlowJo 10 as the mean of FL6-A and FL1-A. When calculating the fold change of relative fluorescence units (RFU), the relative fluorescence units of EYFP was calculated by dividing the mean of fluorescence intensity of EYFP with the mean of BFP fluorescence intensity for normalization as the following formula: […]
Next, the mean of the normalized relative fluorescence units of induced group were divided by the value of control group for calculating the fold change as the following formula: […]
Transfection and microscopy. HEK293T cells (American Type Culture Collection, no. CRL-3216) were cultured with high-glucose Dulbecco's modified Eagle's medium (DMEM) (Thermo Fisher Scientific no. 10569044) with 10% fetal bovine serum (FBS) (Thermo Fisher Scientific no. 10437028) and 1×penicillin-streptomycin (Thermo Fisher Scientific no. 15140122) at 37° C. with 5% CO2. Except for the data in FIGS. 3C, 3E, and 3H, cells were plated into 96 well plate (Corning no. 3598) and transfected by Polyethyleneimine Max (PEI Max) (Polysciences no. 24765-1). 1.5 μL PEI Max (1 mg/mL, pH=7.1) and 100 μl DMEM were mixed with plasmids to be slowly dropped into the cell medium after 30 mins of incubation. Medium was changed 12 hours post-transfection. The inductive small molecules, including Rapamycin (STEM CELL technologies no. 73362), dTAG-13 (TOCRIS no. 6605/5), dTAG^V-1 (TOCRIS no. 6744-5), dBRD9 (TOCRIS no. 6606/5), dTRIM24 (TOCRIS no. 6607/5), MZ1 (TOCRIS no. 6154/5), AT1 (TOCRIS no. 6356/5), TL13-12 (TOCRIS no. 6744/5), TL13-112 (TOCRIS no. 6745/5), dTAG-7 (TOCRIS no. 69125), ZXH3-26 (TOCRIS no. 6713/5) and ABA (GoldBio no. A-050-100), dissolved in Dimethyl sulfoxide (DMSO) (Sigma, no. D8418) were added. For the microscopy observation, the images were taken by Microscopy EVOS (Life Technologies) and processed by ImageJ (Schneider et al., 2012). If not otherwise noted, 60 ng of each plasmid were used for each sample.
Step-by-step fluorescence protein activation assay protocol. Reagents: • 1. PEI Max (Polysciences no. 24765-1) • 2. DMEM, high glucose, GlutaMAX™ Supplement, pyruvate (Thermo Fisher Scientific no. 10569044) • 3. Penicillin-Streptomycin (10,000 U/mL) (Thermo Fisher Scientific no. 15140122) • 4. Fetal Bovine Serum 500ML (FBS) (Thermo Fisher Scientific no. 10437028) • 5. TrypLE™ Express Enzyme (1×), phenol red (Thermo Fisher Scientific no. 12605068) • 6. PBS pH=7.4 (Thermo Fisher Scientific no. 10010023) • 7. Sony sorting chip […] for MA900 (SONY no. LE-C3210) • 8. Automatic Setup Beads kit (SONY no. LE-B3001) • 9. […]

[1] = Table 4 nonlinear regression, Prism 9 [Agonist] vs. response variable slope (four parameters), no unit in table (the source gives nM), read-out: EC50 (best-fit value)
[2] = dose-response, read-out: EC50 for gene activation

SMILES: CC[C@H](C(=O)N1CCCC[C@H]1C(=O)O[C@H](CCc1ccc(OC)c(OC)c1)c1ccccc1OCC(=O)NCCCCCCOc1cccc2c1C(=O)N(C1CCC(=O)NC1=O)C2=O)c1cc(OC)c(OC)c(OC)c1 (stereo partly drawn) [dTAG-13]
- Bottom (best-fit value): 2.581
- Span (best-fit value): 135.7
- Top (best-fit value): 138.3
- Hillslope (best-fit value) (Table 4 nonlinear regression): 3.384
- logEC50 (best-fit value) (Table 4 nonlinear regression): 1.724
- EC50 [1]: 53 nM
- EC50 [2]: 53 nM

SMILES: Cc1ncsc1-c1ccc(CNC(=O)[C@@H]2C[C@@H](O)CN2C(=O)[C@@H](NC(=O)COCCOCCOCCNC(=O)C[C@@H]2N=C(c3ccc(Cl)cc3)c3c(sc(C)c3C)-n3c(C)nnc32)C(C)(C)C)cc1 [MZ1]
- grades of EYFP intensity (HEK293T transfected with GAL4-VHL, TRIM24^BD-VPR, BRD4^BD2-VPR and reporter plasmid, FIG. 2E: dTRIM24, MZ1 100 nM): 13 fold
- Bottom (best-fit value): 1.416
- Span (best-fit value): 319.6
- Top (best-fit value): 321
- Hillslope (best-fit value) (Table 4 nonlinear regression): 1.728
- logEC50 (best-fit value) (Table 4 nonlinear regression): 1.51
- EC50 [1]: 32.4 nM
- EC50 [2]: 32 nM
